In test [1] the target is T1, mouse homolog of the transporter (TAUT1) (Mus musculus, UniProt O35316).
T1 sequence (O35316 1-621): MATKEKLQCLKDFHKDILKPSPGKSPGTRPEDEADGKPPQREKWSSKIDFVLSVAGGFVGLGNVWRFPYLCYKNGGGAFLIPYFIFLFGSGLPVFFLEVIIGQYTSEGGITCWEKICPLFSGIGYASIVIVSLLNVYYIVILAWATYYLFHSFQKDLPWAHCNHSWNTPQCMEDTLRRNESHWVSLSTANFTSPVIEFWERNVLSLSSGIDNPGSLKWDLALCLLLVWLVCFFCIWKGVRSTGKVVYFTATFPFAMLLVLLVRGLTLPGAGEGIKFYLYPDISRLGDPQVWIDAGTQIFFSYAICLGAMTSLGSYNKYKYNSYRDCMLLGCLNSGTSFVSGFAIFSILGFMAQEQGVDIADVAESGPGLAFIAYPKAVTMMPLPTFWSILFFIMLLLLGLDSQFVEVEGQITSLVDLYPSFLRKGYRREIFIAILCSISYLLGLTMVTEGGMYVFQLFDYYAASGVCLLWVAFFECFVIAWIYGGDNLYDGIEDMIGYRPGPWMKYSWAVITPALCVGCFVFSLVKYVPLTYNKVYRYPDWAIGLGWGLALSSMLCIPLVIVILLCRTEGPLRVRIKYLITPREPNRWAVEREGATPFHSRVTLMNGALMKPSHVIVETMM
The conditions noted are these: literature IC50, mouse homolog of the transporter; read-out: Literature Km or IC50; cited from earlier work.

Test [2] concerns the target T2, TAUT1 (Homo sapiens, UniProt P31641).
T2 sequence (P31641 1-620): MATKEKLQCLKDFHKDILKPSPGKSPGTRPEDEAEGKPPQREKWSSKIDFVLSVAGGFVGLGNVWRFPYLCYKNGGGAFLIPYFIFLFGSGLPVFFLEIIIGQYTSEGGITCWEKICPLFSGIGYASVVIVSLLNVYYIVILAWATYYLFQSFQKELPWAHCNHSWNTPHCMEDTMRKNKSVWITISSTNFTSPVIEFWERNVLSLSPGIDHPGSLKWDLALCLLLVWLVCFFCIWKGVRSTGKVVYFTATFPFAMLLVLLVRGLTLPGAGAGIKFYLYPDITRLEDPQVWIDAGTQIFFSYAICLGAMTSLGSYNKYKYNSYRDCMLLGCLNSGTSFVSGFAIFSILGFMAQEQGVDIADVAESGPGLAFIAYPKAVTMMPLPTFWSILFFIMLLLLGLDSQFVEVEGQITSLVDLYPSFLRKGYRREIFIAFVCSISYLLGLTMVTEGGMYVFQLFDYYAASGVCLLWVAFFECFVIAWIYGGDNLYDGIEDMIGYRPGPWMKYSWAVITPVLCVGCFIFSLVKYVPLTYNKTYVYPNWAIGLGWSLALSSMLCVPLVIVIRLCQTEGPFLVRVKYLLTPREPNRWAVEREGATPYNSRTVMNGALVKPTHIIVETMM
Nature of the test: hTAUT1 competition uptake assay in HEK-TREx-TAUT1 cells. The conditions noted are these: HEK-TREx-TAUT1 cells induced with tetracycline; ^3H-GABA radiolabel (taurine: ^3H-taurine per Example 9); 15 min, room temperature. Format: cell-based. Details: expressed in transfected cells; host or cells: HEK-TREx cells (HEK-TREx-TAUT1 inducible line). Here is the method:
A modified competition uptake assay was developed to determine the ability of a test compound(s) to inhibit the uptake of radiolabeled substrates into HEK-TREx-TAUT1 cells induced to over-express hTAUT. The results are stated as affinities (IC50).
The competition uptake assay were prepared as follows: Compounds were prepared for assay by diluting a 100 mM stock concentration (in DMSO) to the appropriate working concentration. Typically, seven-point dose response curves were prepared starting at a final assay concentration of 1 mM and carrying out three-fold dilutions. These dilutions were prepared by making a working “compound” plate that contained a 2× solution of the desired starting concentration of each test compound in duplicate in row A of a v-bottom microtiter plate. Six 3-fold serial dilutions (from row B to G) were made into the HBSS assay buffer (9.8 g/L Hank's Balance Salts (Sigma; H-1387), 2.6 g/L HEPES (10 mM) (Sigma; H-3375), 0.35 g/L NaHCO3 (4.2 mM) (Sigma; S-6297), pH to 7.4 with 5N NaOH) (with the appropriate amount of DMSO so that the DMSO concentration remains constant at all dilutions). The resulting “compound” plate contained serial dilutions of six compounds in duplicate.
^3H-GABA was diluted into HBSS buffer to a final concentration of 4,000 cpm/μl. Enough solution was prepared to allow addition of 25 μl/well (the final concentration was 100,000 cpm/well).
HEK-TREx-hTAUT cells, plated in 96-well plates and treated with tetracycline (or tet analog (e.g., doxycycline), were removed from the incubator. Growth media was removed from the cells, and the cells were washed twice in room temperature HBSS (100 μl/well/wash) using a 96-well plate washer (Bio Tek ELX405). Alternatively, cells were washed manually with equivalent volumes using a multichannel pipettor. Immediately before beginning the assay, the final 100 μl wash solution was removed from the cells by aspiration.
Using a 96-well pipettor, 25 μl from the “compound” plate was added to each well of the cell plate. The assay was started by adding 25 μl of the ^3H-GABA working solution. The plate was incubated at room temperature for 15 minutes. The assay was stopped by washing the cells four times with ice-cold HBSS buffer using a ELX 405 plate washer (100 μl buffer/well/wash) having an angled buffer dispenser.
Scintillation fluid (200 μl) (Optiphase Supermix (Perkin Elmer) was added to each well, and the plate was covered with a 96-well adhesive plate cover and placed on a shaker for 10 minutes. The plates were counted on a 96-well plate scintillation counter for 60 sec/well. The data were analyzed using a sigmoidal dose response curve-fitting program ((Prism, GraphPad, Inc, San Diego, Calif.; equation: one-site competition).
FIG. 7 depicts the results of a competition experiment using HEK-TREx-TAUT1 cells. ^3H-taurine was used as the substrate and unlabeled taurine was used as the competitor. The competition experiment was performed as described in Example 7. Non-specific uptake was determined by measuring the uptake into cells not induced to express the transporter (“no tet”). […] In control cells, uptake of labeled taurine remained at background levels and was largely unaffected by an excess of unlabeled taurine.
These four compounds, IAA, R,S-Baclofen, GPA, and GABA, were tested in both competition and direct uptake assays. One notable difference in the competition assay format compared to the literature is that ^3H-GABA was used, rather than ^3H-taurine, as the radiolabel. […] Therefore, to develop a competition assay that is as sensitive as possible, ^3H-GABA, a substrate with a much […] affinity, was used.

This passage reports IC50 and pIC50 results from US20050170391A1, “TAUT1 transporters expressed in blood brain barrier cells” (Xenoport, Inc., priority 2004, published 2005).

Molecules are shown by their SMILES.

Broadly, the IC50 is the concentration that inhibits the measured activity by half. A word on the pIC50: it is −log10 of the IC50, conventionally taken in molar units. Read a high pIC50 as a low IC50. Regarding `N=C(N)NCCC(=O)O` [GPA], in test [1], the IC50 was 120 µM. Besides, in test [2], the concentration for half-maximal inhibition (IC50) worked out at 24 µM and the pIC50 stood at 4.7.
In test [2], `NCC(CC(=O)O)c1ccc(Cl)cc1` (centres unmarked) [R,S-Baclofen] displayed an IC50 of 1100 µM and a pIC50 of 3.0.
On to `NCCCC(=O)O` [GABA, γ-aminobutyric acid], for which the 50% inhibitory concentration (IC50) in test [1] is 500 µM; in test [2], 54 µM.
Turning to `O=C(O)Cc1c[nH]cn1` [IAA, 4-imidazole acetic acid], the half-maximal inhibitory concentration (IC50) in test [2] stood at 56 µM.
